Residues, ends and D or L forms follow the SMILES beside them.
Biological target: T1, CD47 (Homo sapiens, UniProt Q08722)
T1 construct: MEC-1 or Jurkat membrane preparation is labeled using the Nanotemper NT-647 labeling kit; endogenous in cells; host or cells: Jurkat and/or MEC-1 cell membrane preparation
Assay: Binding affinity by Microscale Thermophoresis on labeled Jurkat and/or MEC-1 cell membrane preparation
Excerpt: FIG. 5 and FIG. 6. Binding curve measured by MST. The measurement method is based on the directed movement of molecules along a temperature gradient, an effect termed “thermophoresis”. A local temperature difference ΔT leads to a local change in molecule concentration (depletion or enrichment), quantified by the Soret coefficient ST: chot/ccold=exp(−STΔT). Jurkat or Mec-1 cell membrane preparations are labeled using the Nanotemper NT-647 labeling kit as described elsewhere.xliv The labeled preparation is eluted with PBS and stored at 4° C. A stock solution of each peptide is prepared in DMSO (5 mM) and then diluted with PBS. For the peptides evaluated by MST, we have kept the concentration of the NT.115-labeled membrane constant, while the concentration of the ligand (peptide) was varied. […]
Binding affinity measurements. The binding affinities of peptides, here PKT16, PKTD1, PKTD10, PKTD10-1, PKTD10-3, PKTD10-5, PKDT10-7 and PKTD10-8 for a membrane preparation from Jurkat and/or MEC-1 cells were measured by Microscale Thermophoresis^xlv on a Monolith NT115-pico system (Nanotemper Technologies, Munich, Germany).
Binding curve measured by MST. […] A local temperature difference ΔT leads to a local change in molecule concentration (depletion or enrichment), quantified by the Soret coefficient ST: chot/ccold=exp(−STΔT). […]

T1 sequence (Q08722 19-323): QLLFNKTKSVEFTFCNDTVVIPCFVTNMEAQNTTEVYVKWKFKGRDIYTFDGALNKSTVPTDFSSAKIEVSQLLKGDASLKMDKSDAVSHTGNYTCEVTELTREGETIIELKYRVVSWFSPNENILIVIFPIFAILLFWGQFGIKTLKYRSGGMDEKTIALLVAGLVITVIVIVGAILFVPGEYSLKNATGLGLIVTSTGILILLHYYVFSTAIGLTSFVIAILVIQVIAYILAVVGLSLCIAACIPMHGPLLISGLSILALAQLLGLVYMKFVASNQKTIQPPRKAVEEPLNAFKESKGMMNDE

Compound: CCCC[C@H](NC(=O)[C@@H](NC(=O)[C@@H](NC(=O)[C@H](Cc1ccc(O)cc1)NC(=O)[C@H](Cc1ccccc1)NC(=O)[C@H](CCCNC(=N)N)N(C)C(=O)[C@H](N)CCCCN)C(C)C)C(C)C)C(=O)N[C@@H](Cc1c[nH]c2ccccc12)C(=O)N[C@@H](CCCCN)C(=O)N[C@H](CCCCN)C(=O)O [PKT16, (D)Lys-(N-Me)Arg-Phe-Tyr-Val-Val-Nle-Trp-Lys-(D)Lys] (HELM PEPTIDE1{[dK].[meR].F.Y.V.V.[Nle].W.K.[dK]}$$$$V2.0; N-terminus and C-terminus assumed)
- binding affinities (Kd), order of magnitude in words: micromolar range
